From DBAASP
Converted amounts (≈) assume the structure as drawn. One block for each compound: values may come before it.

Experiments:
Assay in all cases: ≥ marks a high value that may be exact or a test limit, other limits are often not marked, values filed in µg/mL are converted to µM
[1] = system: Streptococcus pyogenes M1T1 5448
Escherichia coli BL21 = system: Escherichia coli BL21
[2] = system: Pseudomonas aeruginosa PAO1
[3] = system: Candida albicans ATCC 10231
[4] = system: Escherichia coli ATCC 25922
[5] = system: Corynebacterium glutamicum ATCC 13032
Aureobasidium pullulans = system: Aureobasidium pullulans
[6] = system: Staphylococcus aureus ATCC 9144
[7] = system: Pseudomonas aeruginosa ATCC 27853
[8] = system: Pseudomonas aeruginosa ATCC 9027
[9] = system: Bacillus subtilis KCTC 1021
[10] = system: Shigella dysenteriae ATCC 9752
Escherichia coli = system: Escherichia coli
[11] = system: Salmonella enterica subsp. enterica serovar Typhimurium ATCC 14028
[12] = system: Klebsiella pneumoniae ATCC 10031
[13] = system: Micrococcus luteus ATCC 4698
Serratia marcescens = system: Serratia marcescens
[14] = system: Staphylococcus epidermidis ATCC 12228
Escherichia coli UB1005 = system: Escherichia coli UB1005
Escherichia coli K88 = system: Escherichia coli K88
[15] = system: Escherichia coli CVCC 1515
[16] = system: Staphylococcus aureus ATCC 29213
[17] = system: Salmonella enterica subsp. enterica serovar Pullorum ATCC 7913
Escherichia coli K99 = system: Escherichia coli K99
[18] = system: Staphylococcus aureus ATCC 43300
[19] = system: Bacillus cereus CGMCC 1.932
[20] = system: Listeria monocytogenes CGMCC 1.1075
[21] = system: Salmonella typhimurium ATCC 7731
Escherichia coli 078 = system: Escherichia coli 078
[22] = system: Enterococcus faecalis ATCC 29212
[23] = system: Staphylococcus aureus ATCC 25923
Acinetobacter baumannii = system: Acinetobacter baumannii
[24] = system: Bacillus subtilis CMCC 63501
[25] = system: Staphylococcus aureus USA 300

Compound: CC[C@H](C)[C@H](NC(=O)[C@H](CCCN=C(N)N)NC(=O)CNC(=O)[C@@H](NC(=O)[C@H](CCCCN)NC(=O)[C@H](CCCN=C(N)N)NC(=O)[C@@H](NC(=O)[C@H](Cc1ccc(O)cc1)NC(=O)[C@H](CCCN=C(N)N)NC(=O)[C@H](CCCN=C(N)N)NC(=O)[C@H](CC(C)C)NC(=O)[C@H](CCC(=O)O)NC(=O)[C@H](CCCCN)NC(=O)[C@H](C)NC(=O)[C@@H](NC(=O)[C@H](CCCN=C(N)N)NC(=O)[C@H](CC(N)=O)NC(=O)[C@@H](NC(=O)CNC(=O)[C@H](C)N)[C@@H](C)O)[C@@H](C)CC)[C@@H](C)CC)C(C)C)C(=O)N[C@@H](C)C(=O)N[C@@H](CCCN=C(N)N)C(=O)N[C@@H](CCCCN)C(=O)N[C@@H](Cc1c[nH]c2ccccc12)C(=O)N[C@@H](Cc1c[nH]c2ccccc12)C(=O)O [AGTNRIAKELRRYIRKVGRIARKWW]
- MIC [1]: 1 µM (≈ 3.1 µg/mL)
- MIC (Escherichia coli BL21): 0.25 µM (≈ 0.775 µg/mL)
- MIC [2]: 8 µM (≈ 24.8 µg/mL)

Compound: CC(C)[C@H](NC(=O)[C@H](CCCCN)NC(=O)[C@H](C)NC(=O)[C@@H](NC(=O)[C@@H](NC(=O)[C@H](CCCN=C(N)N)NC(=O)[C@H](CCCN=C(N)N)NC(=O)[C@H](Cc1c[nH]c2ccccc12)NC(=O)[C@H](C)NC(=O)CN)[C@@H](C)O)C(C)C)C(=O)N[C@@H](CCCN=C(N)N)C(=O)N[C@@H](CCCCN)C(N)=O [GAWRRTVAKVRK]
- MIC [3]: 50 µM (≈ 71.3 µg/mL)
- MIC [4]: 50 µM (≈ 71.3 µg/mL)
- MIC [5]: 3.1 µM (≈ 4.42 µg/mL)
- MIC (Aureobasidium pullulans): ≥ 50 µM
- MIC [6]: ≥ 100 µM
- MIC [7]: 200 µM (≈ 285 µg/mL)

Compound: CC[C@H](C)[C@H](NC(=O)CN)C(=O)N[C@@H](CC(C)C)C(=O)N[C@@H](CC(=O)O)C(=O)N[C@H](C(=O)N[C@@H](CC(C)C)C(=O)N[C@@H](CCCCN)C(=O)N[C@@H](CCC(N)=O)C(=O)N[C@@H](Cc1ccccc1)C(=O)N[C@@H](C)C(=O)N[C@@H](CCCCN)C(=O)NCC(=O)N[C@H](C(=O)NCC(=O)N[C@@H](CCCCN)C(=O)N[C@@H](CC(=O)O)C(=O)N[C@@H](CC(C)C)C(=O)N[C@H](C(=O)N[C@@H](CCCCN)C(=O)NCC(=O)N[C@@H](C)C(=O)N[C@@H](C)C(=O)N[C@@H](CCC(N)=O)C(=O)O)C(C)C)C(C)C)[C@@H](C)O [GILDTLKQFAKGVGKDLVKGAAQ]
- MIC [8]: > 84.8 µM
- MIC [9]: ≥ 84.8 µM
- MIC [10]: ≥ 84.8 µM
- MIC (Escherichia coli): > 84.8 µM
- MIC [11]: > 84.8 µM
- MIC [12]: ≥ 84.8 µM
- MIC [13]: ≥ 84.8 µM
- MIC (Serratia marcescens): ≥ 84.8 µM

Compound: CC(C)[C@H](NC(=O)[C@@H](NC(=O)[C@H](CCCN=C(N)N)NC(=O)[C@H](CCCN=C(N)N)NC(=O)[C@H](Cc1c[nH]c2ccccc12)NC(=O)[C@H](Cc1c[nH]c2ccccc12)NC(=O)CN)[C@@H](C)O)C(=O)N[C@@H](C)C(=O)N[C@@H](CCCCN)C(=O)N[C@@H](C)C(=O)N[C@@H](CCCN=C(N)N)C(=O)N[C@@H](CCCCN)C(N)=O [GWWRRTVAKARK]
- MIC [3]: 25 µM (≈ 37.8 µg/mL)
- MIC [4]: 12.5 µM (≈ 18.9 µg/mL)
- MIC [5]: 1.6 µM (≈ 2.42 µg/mL)
- MIC (Aureobasidium pullulans): ≥ 50 µM
- MIC [6]: ≥ 100 µM
- MIC [7]: 6.3 µM (≈ 9.54 µg/mL)

The next lines start with the values.

- MIC [4]: 4 µM (≈ 5.71 µg/mL)
- MIC [14]: 8 µM (≈ 11.4 µg/mL)
- MIC (Escherichia coli UB1005): 8 µM (≈ 11.4 µg/mL)
- MIC [11]: 32 µM (≈ 45.7 µg/mL)
- MIC (Escherichia coli K88): 4 µM (≈ 5.71 µg/mL)
- MIC [15]: 8 µM (≈ 11.4 µg/mL)
- MIC [7]: 8 µM (≈ 11.4 µg/mL)
- MIC [16]: 8 µM (≈ 11.4 µg/mL)
Compound: CC(C)C[C@H](NC(=O)[C@H](CCCCN)NC(=O)[C@H](C)NC(=O)[C@H](C)NC(=O)[C@H](C)NC(=O)[C@H](CCCCN)NC(=O)[C@H](C)NC(=O)[C@H](C)NC(=O)[C@H](C)NC(=O)[C@H](CCCCN)NC(=O)[C@H](Cc1c[nH]c2ccccc12)NC(=O)[C@@H](N)CC(C)C)C(=O)N[C@@H](Cc1c[nH]c2ccccc12)C(N)=O [LWKAAAKAAAKLW]

- MIC [17]: 0.5 µM (≈ 0.866 µg/mL)
- MIC (Escherichia coli K99): 1 µM (≈ 1.73 µg/mL)
- MIC [18]: 2 µM (≈ 3.46 µg/mL)
- MIC [19]: 4 µM (≈ 6.92 µg/mL)
- MIC [20]: 2 µM (≈ 3.46 µg/mL)
- MIC [21]: 4 µM (≈ 6.92 µg/mL)
- MIC [14]: 0.5 µM (≈ 0.866 µg/mL)
- MIC (Escherichia coli UB1005): 1 µM (≈ 1.73 µg/mL)
- MIC (Escherichia coli 078): 2 µM (≈ 3.46 µg/mL)
- MIC [22]: 4 µM (≈ 6.92 µg/mL)
- MIC [11]: 2 µM (≈ 3.46 µg/mL)
- MIC (Escherichia coli K88): 4 µM (≈ 6.92 µg/mL)
- MIC [23]: 1 µM (≈ 1.73 µg/mL)
- MIC (Acinetobacter baumannii): 2 µM (≈ 3.46 µg/mL)
- MIC [24]: 8 µM (≈ 13.8 µg/mL)
- MIC [2]: 4 µM (≈ 6.92 µg/mL)
- MIC [7]: 2 µM (≈ 3.46 µg/mL)
Compound: C[C@H](NC(=O)[C@H](CCCN=C(N)N)NC(=O)[C@H](Cc1c[nH]c2ccccc12)NC(=O)[C@H](CCCN=C(N)N)NC(=O)[C@H](Cc1c[nH]c2ccccc12)NC(=O)[C@H](Cc1c[nH]c2ccccc12)NC(=O)[C@H](Cc1c[nH]c2ccccc12)NC(=O)[C@H](CCCN=C(N)N)NC(=O)[C@H](Cc1c[nH]c2ccccc12)NC(=O)[C@H](CCCN=C(N)N)NC(=O)[C@@H](N)CO)C(N)=O [SRWRWWWRWRA]

- MIC [17]: 1 µM (≈ 1.75 µg/mL)
- MIC (Escherichia coli K99): 2 µM (≈ 3.49 µg/mL)
- MIC [18]: 2 µM (≈ 3.49 µg/mL)
- MIC [19]: 8 µM (≈ 14 µg/mL)
- MIC [20]: 1 µM (≈ 1.75 µg/mL)
- MIC [21]: 2 µM (≈ 3.49 µg/mL)
- MIC [14]: 1 µM (≈ 1.75 µg/mL)
- MIC (Escherichia coli UB1005): 1 µM (≈ 1.75 µg/mL)
- MIC (Escherichia coli 078): 2 µM (≈ 3.49 µg/mL)
- MIC [22]: 4 µM (≈ 6.98 µg/mL)
- MIC [11]: 1 µM (≈ 1.75 µg/mL)
- MIC (Escherichia coli K88): 2 µM (≈ 3.49 µg/mL)
- MIC [23]: 1 µM (≈ 1.75 µg/mL)
- MIC (Acinetobacter baumannii): 2 µM (≈ 3.49 µg/mL)
- MIC [24]: 16 µM (≈ 27.9 µg/mL)
- MIC [2]: 16 µM (≈ 27.9 µg/mL)
- MIC [7]: 2 µM (≈ 3.49 µg/mL)
Compound: C[C@H](NC(=O)[C@H](CCCN=C(N)N)NC(=O)[C@H](Cc1c[nH]c2ccccc12)NC(=O)[C@H](CCCN=C(N)N)NC(=O)[C@H](Cc1c[nH]c2ccccc12)NC(=O)[C@H](Cc1c[nH]c2ccccc12)NC(=O)[C@H](Cc1c[nH]c2ccccc12)NC(=O)[C@H](CCCN=C(N)N)NC(=O)[C@H](Cc1c[nH]c2ccccc12)NC(=O)[C@H](CCCN=C(N)N)NC(=O)[C@@H](N)[C@@H](C)O)C(N)=O [TRWRWWWRWRA]

- MIC [1]: 0.25 µM (≈ 0.775 µg/mL)
- MIC [25]: 16 µM (≈ 49.6 µg/mL)
- MIC (Escherichia coli BL21): 1 µM (≈ 3.1 µg/mL)
- MIC [2]: 8 µM (≈ 24.8 µg/mL)
Compound: CC[C@H](C)[C@H](NC(=O)[C@H](CCCN=C(N)N)NC(=O)CNC(=O)[C@@H](NC(=O)[C@H](CCCCN)NC(=O)[C@H](CCCN=C(N)N)NC(=O)[C@@H](NC(=O)[C@H](Cc1ccc(O)cc1)NC(=O)[C@H](CCCN=C(N)N)NC(=O)[C@H](CCCN=C(N)N)NC(=O)[C@H](CC(C)C)NC(=O)[C@H](CCC(=O)O)NC(=O)[C@H](CCCCN)NC(=O)[C@H](C)NC(=O)[C@@H](NC(=O)[C@H](CCCN=C(N)N)NC(=O)[C@H](CC(N)=O)NC(=O)[C@@H](NC(=O)CNC(=O)[C@@H](N)Cc1c[nH]c2ccccc12)[C@@H](C)O)[C@@H](C)CC)[C@@H](C)CC)C(C)C)C(=O)N[C@@H](C)C(=O)N[C@@H](CCCN=C(N)N)C(=O)N[C@@H](CCCCN)C(=O)N[C@@H](C)C(=O)N[C@@H](Cc1c[nH]c2ccccc12)C(=O)O [WGTNRIAKELRRYIRKVGRIARKAW]
